For 59 compounds, viability results are on record in paper PMC12040169 (PLOS Biology, 2025).

The data set in a line: in vitro. To be noted: human, hela cells, % viability.

For the compound `CCN(Cc1ccc(C#N)cc1F)C(=O)Nc1cnn(CCOC)c1` [CBK305697], the viability (commonly a read-out of living cells in per cent, often relative to untreated cells) at 28.5 h, 10 µM came to 91.9%.

Regarding `COc1ccc(CN2CCN(C(=O)c3ccc(C#N)cc3)CC2)cc1` [CBK305698], the viability at 28.5 h, 10 µM was found to be 99.6%.

On to `Cc1ccc(C(=O)N2CCN(Cc3cc(=O)n4ccsc4n3)CC2)cn1` [CBK305700], for which the viability at 28.5 h, 10 µM turned out to be 89.4%.

On to `Cc1nn(CC(=O)N(C)Cc2cnn(C)c2)c(=O)c2ccccc12` [CBK305701], for which the viability at 28.5 h, 10 µM was 103%.

For `Cc1[nH]c(=O)[nH]c(=O)c1CCC(=O)N(C)CC(=O)Nc1cccc(F)c1` [CBK305703], the viability at 28.5 h, 10 µM amounted to 99.6%.

Turning to `O=C(Cn1ccc(=O)[nH]c1=O)NCc1cccnc1-n1cccn1` [CBK305705], the viability at 28.5 h, 10 µM turned out to be 85%.

In the case of `Cc1cc(NC(=O)Cn2cc(Br)cn2)no1` [CBK305706], the viability at 28.5 h, 10 µM came to 102%.

In the case of `Cc1cc(N2CCN(C(=O)CCc3ccsc3)CC2)nc(C(C)C)n1` [CBK305710], the viability at 28.5 h, 10 µM turned out to be 113%.

Take `CNS(=O)(=O)c1ccc(CCC(=O)N(C)Cc2cnn(C)c2)cc1` [CBK305712]: the viability at 28.5 h, 10 µM is 84.9%.

As to `Cn1cc(C(=O)Nc2cccc(S(=O)(=O)N3CCCCCC3)c2)cn1` [CBK305715], the viability at 28.5 h, 10 µM turned out to be 87.2%.

With `Cc1ccccc1CN1CCC(NC(=O)Cn2cc(Br)ccc2=O)CC1` [CBK305716], the viability at 28.5 h, 10 µM is 93.1%.

As for `N#Cc1cccc(C(=O)N2CCC(NC(=O)c3ccc(F)cc3)CC2)c1` [CBK305717], the viability at 28.5 h, 10 µM is 111%.

On to `Cc1nn(CC(C)C)c(C)c1CCC(=O)NCc1nnc2ccccn12` [CBK305719], for which the viability at 28.5 h, 10 µM came out at 88.1%.

Regarding `Cc1cc(CN(C)C(=O)c2cccc(NC(=O)C3CCCCC3)c2)no1` [CBK305722], the viability at 28.5 h, 10 µM is 92.6%.

For `CN1N=C(c2ccc(N3CCOCC3)c(F)c2)CC1c1cnn(C)c1` (centres unmarked) [CBK305726], the viability at 28.5 h, 10 µM was 87.6%.

For `O=C(Nc1ccc2nc(CN3CCOCC3)[nH]c2c1)C1CCCCC1` [CBK305728], the viability at 28.5 h, 10 µM was 80.5%.

Regarding `CCN(CCC(F)(F)F)C(=O)Cc1csc(NC(=O)c2ccoc2C)n1` [CBK305729], the viability at 28.5 h, 10 µM is 83.3%.

Regarding `CCN(Cc1ccc(C#N)cc1F)C(=O)Nc1cc(C)nn1C` [CBK305730], the viability at 28.5 h, 10 µM was found to be 94.2%.

`CS(=O)(=O)c1cc(Br)cc(C(=O)NCCNc2cnccn2)c1F` [CBK305731]: the viability at 28.5 h, 10 µM worked out at 85.8%.

`CCN(CC(=O)NCc1ccc(Cl)cc1)S(=O)(=O)N1CCCCCC1` [CBK305733]: the viability at 28.5 h, 10 µM was determined as 110%.

Turning to `CCN(CC)C(=O)COc1ccc(NC(=O)Nc2cc(C)on2)cc1Cl` [CBK305734], the viability at 28.5 h, 10 µM came out at 104%.

With `CNC(=O)c1cccc(NC(=O)C(C)N(C)Cc2cnc(C)s2)c1` (centres unmarked) [CBK305735], the viability at 28.5 h, 10 µM was found to be 81.5%.

For `CS(=O)(=O)NCC1CCCN(C(=O)Nc2cccc(Cl)c2)C1` (centres unmarked) [CBK305736], the viability at 28.5 h, 10 µM is 79.5%.

Take `O=C(NC1CCN(CCOc2ccccc2F)CC1)c1cccs1` [CBK305737]: the viability at 28.5 h, 10 µM was determined as 96.8%.

Turning to `c1ccc(N2CCC(CNCc3c[nH]nc3-c3cccnc3)C2)cc1` (centres unmarked) [CBK305738], the viability at 28.5 h, 10 µM worked out at 88.7%.

For the compound `COc1ccnc(N2CCN(C(=O)C3(C#N)CCCCC3)CC2)n1` [CBK305739], the viability at 28.5 h, 10 µM turned out to be 92.2%.

`CC(NC(=O)c1ccc(-c2ccccc2F)s1)C(=O)N1CCCCC1` (centres unmarked) [CBK305740]: the viability at 28.5 h, 10 µM turned out to be 91.3%.

As for `CC1CCc2c(C(=O)N3CCC4(CC3)NC(=O)NC4=O)csc2C1` (centres unmarked) [CBK305741], the viability at 28.5 h, 10 µM came out at 101%.

Take `CN(Cc1cnn(C)c1)C(=O)c1ccc(Br)cc1O` [CBK305742]: the viability at 28.5 h, 10 µM was 104%.

Regarding `CC(=O)Nc1ccc(NCc2nc(C(C)C)no2)c(C(F)(F)F)c1` [CBK305743], the viability at 28.5 h, 10 µM is 101%.

Take `CC(=O)Nc1cccc(-n2nnnc2SCC2CCCCO2)c1` (centres unmarked) [CBK305746]: the viability at 28.5 h, 10 µM is 91.5%.

As to `CC1CCc2nc3ccccc3c(C(=O)N(C)Cc3cnn(C)c3)c2C1` (centres unmarked) [CBK305749], the viability at 28.5 h, 10 µM was 96.9%.

Turning to `CC(C)n1ncc2cc(C(=O)Nc3ncccc3O)cnc21` [CBK305751], the viability at 28.5 h, 10 µM came out at 109%.

In the case of `O=C(NC1CCS(=O)(=O)C1)c1cc2ccc(OC(F)(F)F)cc2[nH]1` (centres unmarked) [CBK305754], the viability at 28.5 h, 10 µM was determined as 92.4%.

As to `CC1CCCN(CC(=O)NCc2ccc(OCC(N)=O)cc2)CC1` (centres unmarked) [CBK305755], the viability at 28.5 h, 10 µM was found to be 92.1%.

Consider `CN(CC(N)=O)C(=O)CCn1c(=O)oc2cc(Cl)ccc21` [CBK305757], for which the viability at 28.5 h, 10 µM amounted to 94.9%.

`Cc1nc(CC(=O)N2CCOC(c3ccc(F)cc3)C2)cs1` (centres unmarked) [CBK305759]: the viability at 28.5 h, 10 µM came to 106%.

For `Cc1cc(NC(=O)CN2CCC(CNc3ccccn3)C2)on1` (centres unmarked) [CBK305760], the viability at 28.5 h, 10 µM came to 89.2%.

In the case of `CCN(Cc1ccco1)C(=O)NC1CCCc2c1cnn2CCO` (centres unmarked) [CBK305767], the viability at 28.5 h, 10 µM was determined as 101%.

For the compound `CC1CCC(C(N)=O)CN1C(=O)c1cc(Br)c[nH]1` (centres unmarked) [CBK305769], the viability at 28.5 h, 10 µM stood at 94%.

For `Cn1ccc(CN2CCOC(c3nc(C(C)(C)C)cs3)C2)cc1=O` (centres unmarked) [CBK305771], the viability at 28.5 h, 10 µM came out at 108%.

For `Cc1nnc(CN2CCOC(c3nc(C(C)(C)C)cs3)C2)n1C` (centres unmarked) [CBK305772], the viability at 28.5 h, 10 µM stood at 93.1%.

Regarding `CC1CCC(C(N)=O)CN1C(=O)c1cncc(Br)c1` (centres unmarked) [CBK305773], the viability at 28.5 h, 10 µM was 96.3%.

Regarding `CCC1CN(CC(=O)NCc2ccc(OCC(N)=O)cc2)CCO1` (centres unmarked) [CBK305774], the viability at 28.5 h, 10 µM stood at 102%.

As for `Cc1nc(C(F)(F)F)ccc1C(=O)Nc1nc(CC(N)=O)cs1` [CBK305776], the viability at 28.5 h, 10 µM is 100%.

For `CC(C)(C)c1cnc(C(=O)NC2CCCN(c3ncccn3)C2)o1` (centres unmarked) [CBK305777], the viability at 28.5 h, 10 µM stood at 92.3%.

For the compound `O=C(CCn1cc(Br)ccc1=O)NC1CCN(Cc2ccccc2)CC1` [CBK305778], the viability at 28.5 h, 10 µM worked out at 101%.

`Cc1cc(CN(C)C(=O)Cc2csc(NC(=O)c3ccoc3C)n2)no1` [CBK305779]: the viability at 28.5 h, 10 µM is 102%.

For `CC(Oc1cccc(C#N)c1)C(=O)NCC1(N2CCOCC2)CCSC1` (centres unmarked) [CBK305780], the viability at 28.5 h, 10 µM came out at 94.8%.

As for `Cc1noc(C)c1CN1CCC(C(O)c2ccccc2)CC1` (centres unmarked) [CBK305783], the viability at 28.5 h, 10 µM is 93.9%.

`OC1CCN(CC(O)Cn2c3ccccc3c3ccccc32)CC1` (centres unmarked) [CBK305784]: the viability at 28.5 h, 10 µM is 100%.

On to `Cc1nc(-c2cccnc2)[nH]c(=O)c1CC(=O)N(C)CC1CCCCC1` [CBK305785], for which the viability at 28.5 h, 10 µM is 91.4%.

Turning to `COc1ccccc1CN(C(=O)Nc1ccc(S(C)(=O)=O)cc1)C1CC1` [CBK305787], the viability at 28.5 h, 10 µM stood at 90.9%.

`COc1ccc(C)cc1-n1ccc(C(=O)NC(C)(C)C(N)=O)n1` [CBK305789]: the viability at 28.5 h, 10 µM is 94.1%.

As for `CC(C)CN1CCC(NC(=O)c2csc(-c3cnn(C)c3)n2)CC1` [CBK305790], the viability at 28.5 h, 10 µM amounted to 97.2%.

`Cn1cnnc1C1CCCN(C(=O)NCc2cccc(F)c2)C1` (centres unmarked) [CBK305792]: the viability at 28.5 h, 10 µM was found to be 101%.

Take `CCC1CN(C(=O)Cn2cnc3ccc(F)cc3c2=O)CCO1` (centres unmarked) [CBK305795]: the viability at 28.5 h, 10 µM was determined as 92.4%.

Consider `Cc1cc(C)n(-c2ccc(CN3C(=O)NC4(CCCC4)C3=O)cc2)n1` [CBK305796], for which the viability at 28.5 h, 10 µM was found to be 88.3%.

As for `CC(NS(=O)(=O)c1ccccc1Cl)C(=O)N1CCCCC1C` (centres unmarked) [CBK305797], the viability at 28.5 h, 10 µM turned out to be 93.9%.
